Assay results reported in publication PMC6447718, “PACAP-38 and PACAP(6–38) Degranulate Rat Meningeal Mast Cells via the Orphan MrgB3-Receptor” (Frontiers in Cellular Neuroscience, 2019).
“Also recorded” adds a separate entry of the source. Ends that are not written are not given here.

Experiments:
MrgB3-receptor = conditions: ref Tatemoto et al., 2006; cited from earlier work
Source text: The exact mechanism of basic secretagogue-mediated mast cell degranulation remains unclear. […] However, this would require the ability of peptides, despite their positive charge, to diffuse across the membrane in order to reach intracellular G-proteins, and as this has not been shown, the hypothesis seems unlikely (Tat ...

VPAC2 = conditions: cited from earlier work
Source text: (§1) Pituitary adenylate cyclase-activating peptide-38 (PACAP-38) is a 38-amino acid neuropeptide located in both sensory and parasympathetic perivascular nerve fibers (Moller et al., [1993]; Mulder et al., [1994]). A C-terminal truncated 27-amino acid (PACAP-27) version is endogenously present as well but is less abundant (Miyata et al., [1990]; Arimura et al., [1991]; Ogi et al., [1993]).

VPAC1 = conditions: cited from earlier work
Source text: as §1

VPAC2-receptor = test system: VPAC2-receptor; design: method as in Harmar et al., 2012; conditions: PACAP-38, PACAP-27 and VIP compared; ref Harmar et al., 2012; cited from earlier work
[1] = test system: calcitonin gene-related peptide (CGRP) release from the trigeminal nucleus caudalis; conditions: ref Jansen-Olesen et al., 2014; cited from earlier work
Source text: Future studies will have to rule out if MrgB3-receptors are involved in PACAP- ...

[2] = test system: rat peritoneal mast cells; conditions: rat peritoneal mast cells; ref Baun et al., 2012; cited from earlier work
Source text: Inspired by clinical findings, we have previously characterized the degranulating effect of various PACAP-analogues on isolated rat peritoneal mast cells. Based on the expectation that degranulation is mediated through the PAC1-receptor, we found an unpredicted order of potency (Baun et al., [2012]).

VPAC1-receptor = test system: VPAC1-receptor; design: method as in Harmar et al., 2012; conditions: PACAP-38, PACAP-27 and VIP compared; ref Harmar et al., 2012; cited from earlier work
migraine patients = conditions: migraineurs; ref Rahmann et al., 2008; cited from earlier work
Source text: as §1, with “[1993]). […] Degranulation of mast cells can be induced either by an allergen-IgE-dependent mechanism or via an IgE-independent mechanism. The latter mechanism can be activated by a group of molecules known as basic secretagogues.” for “[1993]).”

PAC1-receptor = conditions: relative to PACAP; ref Miyata et al., 1989, 1990; Harmar et al., 1998; cited from earlier work
Source text: Pituitary adenylate cyclase-activating peptide-38 (PACAP-38) is a 38-amino acid neuropeptide located in both sensory and parasympathetic perivascular nerve fibers (Moller et al., [1993]; Mulder et al., [1994]). A C-terminal truncated 27-amino acid (PACAP-27) version is endogenously present as well but is less abundant (Miyata et al., [1990]; Arimura et al., [1991]; Ogi et al., [1993]). […] At present, three PACAP-receptors have been identified: PA ... || Several different splice variants of the PAC1-receptor have been identified in rats. Splice sites in the extracellular N-terminal domain and the third intracellular loop account for fine tuning of ligand affinity and signal transduction through adenylate cyclase or PLC activation (Deutsch and Sun, [1992]; Spengler et al., [1993]).

[3] = test system: MrgB3-receptor (RGD1560730); assay: Two-electrode voltage clamp on MrgB3-receptor-expressing Xenopus laevis oocytes; format: cell-based, rat; conditions: 1–10 μM, holding potential −70 mV
Source text: (§2) DNA of the coding region of Rattus Norvegicus Adcyap1r1 variant 5 (NM_001270582.1) encoding the null-splice variant (short N-terminal and neither exon 14 or 15) of the PAC1-receptor (Vector: EX-Rn10199-M03) was ordered from GeneCopoeia. DNA encoding the RGD1560730 gene (XM_006229262.3, GenScript), was cloned into the pXOOM vector as previously described (Jespersen et al., [2002]). DNA was purified using Plasmid DNA Purification NucleoBond Xtra Midi-kit (Macherey-Nagel). […] Extracted plasmids were linearized down-stream the poly(A) segment using the XhoI restriction enzyme (New England Biolabs, Ipswich, MA, USA). RNA was in vitro transcribed by synthetization from the T7 RNA polymerase promoter using the mMessenger mMachine kit (Ambion) according to manufacturer’s protocol. Messenger RNA was purified using the MEGAclear kit (Ambion). Transcribed RNA integrity was assessed by agarose gel electrophoresis.
(§3) Stage V and VI defolliculated Xenopus laevis oocytes were purchased from EcoCyte Bioscience (Dortmund, Germany) and kept in Kulori medium (90 mM NaCl, 4 mM KCl, 1 mM MgCl2, 1 mM CaCl2, and 5 mM Hepes, pH 7.4). Oocytes were micro-injected with 50 nl mRNA solution containing 30 ng RNA per oocyte and incubated at 19°C. Currents were measured after 2–5 days using a conventional two-electrode-voltage clamp (TEVC). The oocytes were placed in a 200 μl chamber and continuously exposed to a flow of Kulori medium with or without ligands (1 ml/min) while impaled with both a current and a voltage electrode filled with 3 M KCl and connected to an Oocyte Clamp Amplifier [Warner Instruments Corp. (OC-725 B) and a PC-interface (Digidata1440A, Molecular Devices)]. Current amplitude in absence or presence of ligands were analyzed using pClamp 10.2 software (Molecular Devices). All experiments were performed with oocyte membrane voltages constantly clamped to −70 mV and the temperature was kept between 19 and 22°C. In activation experiments, non-responding as well as low-responding (<10 nA) oocytes were excluded from the dataset. Ligands PACAP-38, PACAP-27, PACAP(6–38) were custom synthetized by Caslo (Lyngby, Denmark) while maxadilan was purchased from Bachem (Bubendorf, Switzerland).
(§4) Concentration-response curves for both oocytes and dural mast cells were analyzed for overall effects of PACAP-38 and -27 by two-way analyses of variance (ANOVA) followed by Sidak’s test for multiple pairwise comparisons. Effects of PAC1-receptor ligands on mast cell degranulation or on receptor-expressing oocytes were analyzed with a one-way ANOVA followed by Tukey’s multiple comparisons test. The effect of PACAP-38 and PACAP(6–38) on MrgB3-expressing oocytes were analyzed by an unpaired two-tailed t-test. Differences between groups were considered significant when p < 0.05 and data are presented as mean with standard error of the mean (±SEM). GraphPad Prism 7 (GraphPad Prism Software, San Diego, CA, USA) was used for statistical analysis.

[4] = test system: PAC1-receptor (Rattus Norvegicus Adcyap1r1 variant 5, null-splice variant); format: cell-based
Source text: as §2, §3, §4

rat meningeal mast cells = assay: Mast cell degranulation in hemi-skull preparations (dura mater, toluidine blue staining, microscopic count); format: cell-based, rat (male Sprague-Dawley)
Procedure: Mast cell degranulation was performed as previously described (Pedersen et al., [2015]). In brief, skulls were cut mid-sagittal and the brain halves were removed, leaving the dura mater undisturbed. This was followed by immediate addition of either 350 μl 0.1, 1 or 10 μM PACAP-38 (custom synthesis by Caslo Laboratory ApS, Lyngby, Denmark) or vehicle (saline) in phosphate buffered saline (PBS). After 30 s incubation, the reactions were terminated, and the skulls were fixated in 4% paraformaldehyde in phosphate buffered saline (PBS; Glostrup Hospital Pharmacy, Denmark). The dura mater was dissected from the skull, whole mounted on slides, and mast cells were visualized by staining with 0.1% acidified toluidine blue (Sigma Aldrich, Germany). Tissues were dehydrated in graded alcohols prior to cover slip mounting. The level of mast cell degranulation was evaluated by 400× magnification (Nikon Eclipse Ni microscope) by a researcher blinded to the treatment and was counted in 10 consecutive fields along the stem part of the middle meningeal artery. Mast cells were considered degranulated if an extensive dispersion of more than 10 extruded granules were localized outside the cell or if an extensive loss of staining gave the cell a “ghostly” look.
as §4

[5] = test system: PAC1-receptor (Rattus Norvegicus Adcyap1r1 variant 5, null-splice variant); assay: Antagonism of PACAP-38-induced currents in PAC1-receptor-expressing oocytes (TEVC); format: cell-based
Source text: as §2, with “RNA was in vitro transcribed by synthetization from the T7 RNA polymerase promoter using the mMessenger mMachine kit (Ambion) according to manufacturer’s protocol. Messenger RNA was purified using the MEGAclear kit (Ambion).” left out
Stage V and VI defolliculated Xenopus laevis oocytes were purchased from EcoCyte Bioscience (Dortmund, Germany) and kept in Kulori medium (90 mM NaCl, 4 mM KCl, 1 mM MgCl2, 1 mM CaCl2, and 5 mM Hepes, pH 7.4). […] Currents were measured after 2–5 days using a conventional two-electrode-voltage clamp (TEVC). […] Current amplitude in absence or presence of ligands were analyzed using pClamp 10.2 software (Molecular Devices). […]
Concentration-response curves for both oocytes and dural mast cells were analyzed for overall effects of PACAP-38 and -27 by two-way analyses of variance (ANOVA) followed by Sidak’s test for multiple pairwise comparisons. […]

[6] = ref Spengler et al., 1993, Pantaloni et al., 1996

Substance	affinity to MrgB3-receptor (result in words) (MrgB3-receptor)	affinity to VPAC2 relative to PACAP (result in words) (VPAC2; [6])	affinity to VPAC1 relative to PACAP (result in words) (VPAC1; [6])	profile on VPAC2-receptor (result in words) (VPAC2-receptor)	release of CGRP from the trigeminal nucleus caudalis (result in words) [1]	peritoneal mast cell degranulation (result in words) [2]	profile on VPAC1-receptor (result in words) (VPAC1-receptor)	migraine attacks / headache after infusion (result in words) (migraine patients)	binding to the PAC1-receptor, times lower than PACAP (PAC1-receptor)	affinity to VPAC2-receptor (result in words) (VPAC2; ref Harmar et al., 2012)	affinity to VPAC1-receptor (result in words) (VPAC1; ref Harmar et al., 2012)	activation of MrgB3-receptor (result in words) [3]	current ([4]; 0.1 μM alone, 1 min perfusion, −70 mV, Figure 6B, n = 9, mean ± SEM)	activation of PAC1-receptor / relative potency (result in words) ([4]; 0.01 to 1 μM, holding potential −70 mV)	mast cell degranulation (rat meningeal mast cells; 10 μM, Figure 6A, PACAP(6–38) n = 7 (p < 0.0001), PACAP-38 n = 5, mean ± SEM)	mast cell degranulation (result in words) (rat meningeal mast cells; 0.1 to 10 μM, 30 s, rat meningeal mast cells)	inhibition of PACAP-38 induced responses (result in words) ([5]; PACAP(6–38) 0.1 μM together with PACAP-38, one-way ANOVA, Tukey's test)	PACAP-38-induced current in presence of antagonist ([5]; PACAP(6–38) administered together with PACAP-38 in 0.1 μM, −70 mV, n = 10, mean ± SEM, PACAP-38 alone −0.18 ± 0.5 μA)
[D-Trp^7,9,10]-substance P	affinity																	
vasoactive intestinal peptide [VIP]		equals that of PACAP	equals that of PACAP	equipotent	neither VIP, PACAP-27 nor maxadilan, mediated the release	not PACAP-27 and VIP, caused degranulation; also recorded: weak degranulating effect	equipotent	only induces a mild headache and no migraine-like attacks in migraineurs; also recorded: does not provoke migraine headache	1,000 times									
Pituitary Adenylate Cyclase Activating Peptide(6–38) (FTDSYSRYRKQMAVKKYLAAVLGKRYKQRVKNK; ends and bridges not checked; UniProt P18509 137-169, looked up, fragment) [PACAP(6–38), PAC1-receptor antagonist, custom synthetized by Caslo]						pronounced mast cell degranulation; also recorded: as potent as PACAP-38				has not been shown to have an affinity	has not been shown to have an affinity	agonistic effect on MrgB3-receptors expressed in oocytes; also recorded: equipotent to PACAP-38; also recorded: induce a significant current in MrgB3-receptor-expressing oocytes	−5 ± 6 nA	unable to induce currents	93 ± 2%	as potent as PACAP-38; also recorded: potent degranulator of rat meningeal mast cells	significantly antagonized; also recorded: significant inhibition of PACAP-38 induced responses	−0.05 ± 0.02 μA
